Activity calls are given as the source filed them. The rule behind the calls is not given here.
Legend:
[1] = target: Serine/threonine-protein kinase B-raf (Homo sapiens, UniProt P15056, Y340D/Y341D)
[2] = Therapeutic index, ratio of CC50 for human rhabdomyosarcoma cells to EC50 for EV71 BC08 GU475127 infected in human rhabdomyosarcoma cells; details: read-out: Ratio CC50/EC50
[3] = Cytotoxicity activity against human rhabdomyosarcoma cells after 24 hrs by MTT assay; assay type: cell-based, Rhabdomyosarcoma cell
Enterovirus A71 [4] = experiment: Antiviral activity against EV71 BC08 GU475127 infected in human rhabdomyosarcoma cells assessed as reduction in viral induced cytopathic effect measured after 24 hrs by phase-contrast microscopy; assay type: functional, organism-based; details: Enterovirus A, BC08 GU475127, 24 h
Enterovirus A71 [5] = experiment: Inhibition of VP1 expression in human rhabdomyosarcoma cells infected with EV71 BC08 GU475127 pre-treated for 1 hr followed by viral infection measured after 24 hrs by western blotting analysis
[6] = target: Dual specificity mitogen-activated protein kinase kinase; MEK1/2 (Homo sapiens) (UniProt P36507+Q02750); experiment: Inhibition of MEK1/2 phosphorylation in human rhabdomyosarcoma cells infected with EV71 BC08 GU475127 at 6.25 to 25 uM pre-treated for 1 hr followed by viral infection measured after 24 hrs by western blotting analysis
Sequence of Dual specificity mitogen-activated protein kinase kinase; MEK1/2 (Homo sapiens) (P36507 whole entry, looked up): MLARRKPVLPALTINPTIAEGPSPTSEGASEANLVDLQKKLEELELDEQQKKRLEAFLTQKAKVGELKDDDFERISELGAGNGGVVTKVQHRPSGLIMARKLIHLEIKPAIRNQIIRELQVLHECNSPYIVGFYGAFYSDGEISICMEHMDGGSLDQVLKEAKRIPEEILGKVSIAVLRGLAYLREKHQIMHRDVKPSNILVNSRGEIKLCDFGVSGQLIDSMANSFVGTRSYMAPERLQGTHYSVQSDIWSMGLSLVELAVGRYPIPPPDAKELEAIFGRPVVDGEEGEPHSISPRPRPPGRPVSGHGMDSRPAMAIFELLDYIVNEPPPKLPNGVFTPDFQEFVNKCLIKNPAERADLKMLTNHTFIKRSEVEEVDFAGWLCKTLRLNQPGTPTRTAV
Sequence of Dual specificity mitogen-activated protein kinase kinase; MEK1/2 (Homo sapiens) (Q02750 whole entry, looked up): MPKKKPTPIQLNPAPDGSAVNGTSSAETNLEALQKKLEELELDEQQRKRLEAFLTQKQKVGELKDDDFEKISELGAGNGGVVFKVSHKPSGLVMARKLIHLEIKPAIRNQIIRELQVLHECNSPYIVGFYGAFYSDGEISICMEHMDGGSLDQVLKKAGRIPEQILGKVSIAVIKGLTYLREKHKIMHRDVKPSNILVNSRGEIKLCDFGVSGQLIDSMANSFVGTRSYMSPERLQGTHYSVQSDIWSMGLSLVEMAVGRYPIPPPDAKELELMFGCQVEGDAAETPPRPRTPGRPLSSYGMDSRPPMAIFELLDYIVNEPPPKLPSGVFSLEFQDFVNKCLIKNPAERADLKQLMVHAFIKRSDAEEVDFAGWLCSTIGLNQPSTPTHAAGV

[7] = Non-competitive inhibition of N-terminal GST-tagged human BRAF/MEK1/RAF1 Y340D/Y341D double mutant measured after 2 hrs in presence of 300 uM of ATP by TR-FRET assay
[8] = Non-competitive inhibition of N-terminal GST-tagged human BRAF/MEK1/RAF1 Y340D/Y341D double mutant measured after 2 hrs in presence of 33.33 uM of ATP by TR-FRET assay
[9] = target: Dual specificity mitogen-activated protein kinase kinase 1 (Homo sapiens) (UniProt Q02750); details: at 6.25 to 25 µM
Sequence of Dual specificity mitogen-activated protein kinase kinase 1 (Homo sapiens) (Q02750 whole entry): as the sequence (Q02750 whole entry, looked up) above

[10] = Non-competitive inhibition of N-terminal GST-tagged human BRAF/MEK1/RAF1 Y340D/Y341D double mutant measured after 2 hrs in presence of 100 uM of ATP by TR-FRET assay

Sequence of Serine/threonine-protein kinase B-raf (P15056 whole entry, looked up, stated change not applied): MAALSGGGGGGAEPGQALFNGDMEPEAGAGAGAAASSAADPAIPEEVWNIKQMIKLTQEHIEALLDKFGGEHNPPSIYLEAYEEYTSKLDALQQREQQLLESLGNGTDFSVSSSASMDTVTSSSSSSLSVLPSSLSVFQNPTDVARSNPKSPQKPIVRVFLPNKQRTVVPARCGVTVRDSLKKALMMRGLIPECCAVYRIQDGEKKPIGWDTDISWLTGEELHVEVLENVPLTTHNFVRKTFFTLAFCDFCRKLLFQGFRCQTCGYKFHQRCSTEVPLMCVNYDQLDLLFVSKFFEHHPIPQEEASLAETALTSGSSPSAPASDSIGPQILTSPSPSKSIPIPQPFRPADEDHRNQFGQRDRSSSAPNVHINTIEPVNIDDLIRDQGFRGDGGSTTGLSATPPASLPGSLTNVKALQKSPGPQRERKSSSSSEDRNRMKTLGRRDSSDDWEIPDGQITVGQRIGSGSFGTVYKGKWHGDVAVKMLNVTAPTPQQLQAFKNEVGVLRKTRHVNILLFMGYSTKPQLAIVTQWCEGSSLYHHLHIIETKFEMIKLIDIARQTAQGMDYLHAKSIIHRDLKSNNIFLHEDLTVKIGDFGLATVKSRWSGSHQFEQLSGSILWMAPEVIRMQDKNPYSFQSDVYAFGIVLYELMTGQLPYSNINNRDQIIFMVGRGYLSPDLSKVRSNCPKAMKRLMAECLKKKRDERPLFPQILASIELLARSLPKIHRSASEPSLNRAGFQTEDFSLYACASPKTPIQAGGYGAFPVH

| SMILES | IC50 [1] | further results |
| --- | --- | --- |
| CN(C)C(=O)Oc1ccc2c(=O)n(Cc3ccc(NS(C)(=O)=O)cc3)c(=O)oc2c1 | > 10 µM |  |
| CN(C)C(=O)Oc1ccc2c(=O)n(Cc3cccc(NS(=O)(=O)NCCC#N)c3F)c(=O)oc2c1 | 0.06 µM | selectivity ratio [2]: > 25; CC50 at 24 h [3]: > 100 µM; EC50 (Enterovirus A71 [4]): 3.92 µM; inhibition (Enterovirus A71 [5]): Dose-dependent effect; inhibition [6]: Active |
| CN(C)C(=O)Oc1ccc2c(=O)n(Cc3ccc(F)c(NS(C)(=O)=O)c3)c(=O)oc2c1 | 9.87 µM |  |
| O=C(NOC[C@H](O)CO)c1ccc(F)c(F)c1Nc1ccc(I)cc1F |  | inhibition (Enterovirus A71 [5]): Dose-dependent effect |
| COc1ccc2c(=O)n(Cc3cccc(NS(=O)(=O)NCCC#N)c3F)c(=O)oc2c1 | > 10 µM |  |
| CN(C)C(=O)Oc1ccc2c(=O)n(Cc3cccc(NS(=O)(=O)Nc4ccccc4)c3F)c(=O)oc2c1 | 1.64 µM |  |
| CS(=O)(=O)Nc1cccc(Cn2c(=O)oc3cc(OC(=O)c4ccccc4)ccc3c2=O)c1F | > 10 µM |  |
| CN(C)C(=O)Oc1ccc2oc(=O)n(Cc3cccc(NS(C)(=O)=O)c3F)c(=O)c2c1 | > 10 µM |  |
| CNS(=O)(=O)Nc1cccc(Cn2c(=O)oc3cc(OC(=O)N(C)C)ccc3c2=O)c1F | 0.055 µM | IC50 [7]: 0.054 µM; IC50 [8]: 0.181 µM; selectivity ratio [2]: > 98; CC50 at 24 h [3]: > 100 µM; EC50 (Enterovirus A71 [4]): 1.02 µM; inhibition [9]: Active; inhibition (Enterovirus A71 [5]): Dose-dependent effect; inhibition [6]: Active; IC50 [10]: 0.056 µM |
| CCS(=O)(=O)Oc1ccc2c(=O)n(Cc3cccc(NS(=O)(=O)NC)c3F)c(=O)oc2c1 | 0.67 µM |  |
| CCS(=O)(=O)Nc1cccc(Cn2c(=O)oc3cc(OC(=O)N(C)C)ccc3c2=O)c1F | 0.2 µM |  |
| CN(C)C(=O)Oc1ccc2c(=O)n(Cc3ccccc3F)c(=O)oc2c1 | > 10 µM |  |
| CN(C)C(=O)Oc1ccc2c(=O)n(Cc3cccc(NS(C)(=O)=O)c3F)c(=O)oc2c1 | 0.3 µM |  |
| CCCC(=O)Oc1ccc2c(=O)n(Cc3cccc(NS(=O)(=O)NC)c3F)c(=O)oc2c1 | 1.2 µM |  |
| CNS(=O)(=O)Nc1cccc(Cn2c(=O)oc3cc(OC(C)=O)ccc3c2=O)c1F | 0.61 µM |  |
| CN(C)C(=O)Oc1ccc2c(=O)n(Cc3ccc(F)cc3)c(=O)oc2c1 | > 10 µM |  |
| CNS(=O)(=O)Nc1cccc(Cn2c(=O)oc3cc(OC(=O)C(C)C)ccc3c2=O)c1F | 0.72 µM |  |
| CN(C)C(=O)Oc1ccc2c(=O)n(Cc3cccc(NS(=O)(=O)NCc4ccccc4)c3F)c(=O)oc2c1 | 1.49 µM |  |
| CN(C)C(=O)Oc1ccc2c(=O)n(Cc3cccc(NS(C)(=O)=O)c3)c(=O)oc2c1 | 5.92 µM |  |
| CNC(=O)c1cc(Oc2ccc(NC(=O)Nc3ccc(Cl)c(C(F)(F)F)c3)cc2)ccn1 [SORAFENIB] |  | CC50 at 24 h [3]: 7.05 µM |
| CNS(=O)(=O)Nc1cccc(Cn2c(=O)oc3cc(OS(C)(=O)=O)ccc3c2=O)c1F | 2.54 µM |  |
| CN(C)C(=O)Oc1ccc2c(=O)n(Cc3cccc([N+](=O)[O-])c3)c(=O)oc2c1 | > 10 µM |  |
| CCC(=O)Oc1ccc2c(=O)n(Cc3cccc(NS(=O)(=O)NC)c3F)c(=O)oc2c1 | 0.23 µM |  |
| CC(=O)Nc1cccc(Cn2c(=O)oc3cc(OC(=O)N(C)C)ccc3c2=O)c1 | > 10 µM |  |
| CN(C)C(=O)Oc1ccc2c(=O)n(Cc3cccc(NS(N)(=O)=O)c3F)c(=O)oc2c1 | 0.84 µM |  |
| CC(C)NS(=O)(=O)Nc1cccc(Cn2c(=O)oc3cc(OC(=O)N(C)C)ccc3c2=O)c1F | 0.21 µM |  |
| CN(C)C(=O)Oc1ccc2c(=O)n(Cc3ccccc3NS(C)(=O)=O)c(=O)oc2c1 | > 10 µM |  |
| CN(C)C(=O)Oc1ccc2c(=O)n(Cc3cccc(NS(=O)(=O)NCC(F)(F)F)c3F)c(=O)oc2c1 | 0.42 µM |  |

From ChEMBL document CHEMBL3813666, “Discovery of 3-benzyl-1,3-benzoxazine-2,4-dione analogues as allosteric mitogen-activated kinase kinase (MEK) inhibitors and anti-enterovirus 71 (EV71) agents” (Bioorg Med Chem, 2016)
